Structures are written as SMILES. Values after ≈ are worked out from the molar mass of the structure shown. Where two headings read alike, the source gives them in different places.

In data set [1] the test system is Aspergillus fumigatus (ATCC MYA-4609/AF293/CBS 101355). Kind of data set: Measurement of minimum inhibitory concentration (MIC), AF293. It counts as cell-based. The settings on record: CBS101355; Aspergillus fumigatus AF293, 35° C., 48 hours, RPMI1640; read-out: AF293: MIC. The procedure: New streaks are made with glycerol stock solution of the strains of Aspergillus fumigatus (ATCC MYA-4609/AF 293/CBS 101355) on Sabouraud's dextrose agar (SDA), incubate at 35° C. and a humidity of 40-70% for 72 hours. Other strains are processed as the same as AF293.
RPMI1640: one packet of RPMI1640 powder is dissolved in 1 L purified water and mixed well, add 0.165M MOPS, adjust the pH to 7.0, sterilize by filtration with 0.22 um membrane, and store at 4° C. for no more than 3 months.
Physiological saline: weigh 9 g of sodium chloride powder and dissolve in 1 L of purified water, and mixed well. Sterilize at 121° C. for 30 min, store at room temperature (RT) for no more than 1 week.
Dissolve the test compound and stock solution of one control compound with DMSO and obtain solutions at a concentration of 12.8 mg/mL
The maximum concentration of each compound is 0.8 mg/mL (e.g., 150 μL of dimethyl sulfoxide+10 uL of 12.8 mg/mL compound/control). Column 1 is filled with 40 μL of compound and columns 2 to 11 with 20 μL of dimethyl sulfoxide. Transfer 20 μL of compound from column 1 to column 2 to dilute the concentration. Repeat the above steps up to column 11 to give 2× serial dilutions.
2 μL of the above 2× serial dilutions are injected into each hole of the corresponding test plate using a multichannel pipette.
Drop 5 ml of saline on the Aspergillus fumigatus SDA plate. The spores were carefully wiped off from the surface of the plate with an L-shaped coating rod. Then the suspension is transferred into a sterile tube. After shaking, let the tube stand for 5 to 10 minutes. Count the number of spores in the upper suspension with a hemocytometer and check the purity. Adjust the inoculum concentration to 0.2-2.5×10^4 spores/mL.
Inject 198 μL of diluted inoculum into each holes of the corresponding test plate using a multichannel pipette.
Incubate at 35° C. for 48 hours.
To facilitate scoring of the presence or absence of growth on the wall, a magnifying glass is used. The tested 96-well microplates were photographed and the optical density at 530 nm is read with an enzyme marker (Tecan Spark).

A short description of data set [2]: Pharmacokinetic test in SD rats, single oral administration. The settings on record: single oral administration 10 mg/kg, test compound mixed with F901318, plasma; for half-life: read-out: T½ (converted). It counts as in vivo. How it is done: Pharmacokinetic study is performed on SD rats receiving single oral administration of each test compound mixed with F901318 (10 mg/kg, 3 rats per group). Test compounds and F901318 are dissolved with […]+10% solutol+85% saline, vortexed for 1-2 mins and ultra-sonicated for 5-10 mins to form a colorless clear drug solution. The animals are fasted overnight before oral administration, and resumed feeding 4 hours after administration. After oral administration, pharmacokinetic samples are collected from orbital blood of SD rats at 0.083 h, 0.25 h, 0.5 h, 1 h, 2 h, 4 h, 6 h, 8 h, and 24 h, and three whole blood samples are collected at each time point in a volume of 0.2-0.3 mL. Blood samples are placed on ice immediately after collected, and the plasma is separated by centrifugation within 15 min (centrifugation conditions: 8000 rpm, 1 min, and at room temperature).
The collected plasma is stored at −20° C. prior to analysis. Transfer 20 μL of plasma sample into an 0.5 mL EP tube, add 200 μL of working internal standard solution (blank group is without internal standard, using the same volume of solvent instead), vortex and mix for 3 min centrifuge at 13500 rpm for 10 min, take 100 μL of supernatant and analyze with LC-MS/MS.

Data set [3] has as its system Aspergillus fumigatus (ATCC-204305). Kind of data set: Measurement of minimum inhibitory concentration (MIC), ATCC 204305. It counts as cell-based. The settings on record: Aspergillus fumigatus ATCC 204305, 35° C., 48 hours. How it is done:
New streaks are made with glycerol stock solution of the strains of Aspergillus [NT] MYA-4609/AF 293/CBS 101355) on Sabouraud's dextrose agar (SDA), incubate at 35° C. and a humidity of 40-70% for 72 hours. Other strains are processed as the same as AF293. RPMI1640: one packet of RPMI1640 powder is dissolved in 1 L purified water and mixed well, add 0.165M MOPS, adjust the pH to 7.0, sterilize by filtration with 0.22 um membrane, and store at 4° C. for no more than 3 months. Physiological saline: weigh 9 g of sodium chloride powder and dissolve in 1 L of purified water, and mixed well. […] Dissolve the test compound and stock solution of one control compound with DMSO and obtain solutions at a concentration of 12.8 mg/mL The maximum concentration of each compound is 0.8 mg/mL (e.g., 150 μL of dimethyl sulfoxide+10 uL of 12.8 mg/mL compound/control). […] Repeat the above steps up to column 11 to give 2× serial dilutions. 2 μL of the above 2× serial dilutions are injected into each hole of the corresponding test plate using a multichannel pipette. Drop 5 ml of saline on the Aspergillus fumigatus SDA plate. The spores were carefully wiped off from the surface of the plate with an L-shaped coating rod. Then the suspension is transferred into a sterile tube. After shaking, let the tube stand for 5 to 10 minutes. Count the number of spores in the upper suspension with a hemocytometer and check the purity. Adjust the inoculum concentration to 0.2-2.5×10^4 spores/mL. Inject 198 μL of diluted inoculum into each holes of the corresponding test plate using a multichannel pipette. Incubate at 35° C. for 48 hours. […] To facilitate scoring of the presence or absence of growth on the wall, a magnifying glass is used. The tested 96-well microplates were photographed and the optical density at 530 nm is read with an enzyme marker (Tecan Spark).

Data set [4] is described as follows: Liver microsomal stability test, human. In kind it is in vitro ADME. The settings on record: Human liver microsomes. The procedure: (§1) • 1: Add 10 μL of working solutions of test product or reference product and 80 μL of microsomal working solution (liver microsomal protein concentration of 0.5 mg/mL) to wells of TO, T5, T10, T20, T30, T60, and NCF60, and only microsomal working solution is added to the Blank60 wells. Then the samples of Blank60, T10, T20, T30 and T60, except for TO and NCF60, are placed in a water bath set at 37° C. and incubate for approximately 10 mins; • 2: Add 300 μL of termination solution (acetonitrile solution containing 200 ng/mL tolbutamide and 200 ng/mL labetalol) to Sample TO, followed by 10 ul of NADPH regeneration system working solution; • 3: After incubation of Blank60, T5, T10, T20, T30 and T60 on incubation plates, add 10 μL of NADPH regeneration system working solution to each sample well to start the reaction, and 10 uL of 100 mM potassium phosphate buffer is add to the NCF60 sample wells; • 4: After incubation for appropriate times (e.g., 5, 10, 20, 30 and 60 mins), 300 μL of termination solution is add to each sample well of test product and reference product on Blank60, T5, T10, T20, T30, T60 and NCF60 plates, respectively, to terminate the reaction. • 5: All sample plates are shaken well and centrifuged at 4000 rpm for 20 min, take 100 μL of the supernatant of the test product or reference product, dilute in 300 μL of pure water for LC-MS/MS analysis, respectively. • 6: Data analysis, T½ and CLint(mic) (μL/min/mg) values are calculated based on the first-order elimination kinetics, and the equations of first-order elimination kinetics are: […]

Data set [5] relates to Aspergillus fumigatus ATCCMYA-4690 (AF293). Kind of data set: Survival rate experiment II of mouse bloodstream infection model with Aspergillus fumigatus. In kind it is in vivo. The settings on record: immunosuppressed male CD-1 mouse. How it is done: Test Case 6: Survival Rate Experiment II of Mouse Bloodstream Infection Model with Aspergillus fumigatus • Animal for experiment: male CD-1 mouse, 6-8 weeks old, 10 animals per group. • Induction of immunosuppression: the day of infection is defined as day 0, and mouses are injected intraperitoneally with corresponding doses of cyclophosphamide on day −4 (150 mg/kg), day −1 (100 mg/kg), and day 2 (100 mg/kg), respectively. • Microbial pathogen: Aspergillus fumigatus ATCCMYA-4690 (AF293). • Collection conditions of inoculum: culture on SDA culture plates, incubate at 25° C. for at least 7 days, collect with PBS+0.1% Tween 20, and count microscopically; • Inoculation level, route and volume: 3.90E+05 CFU/mouse, tail vein injection, injection volume of 100 μL/mouse; • Treatment: Treatment is started 24 hours after infection, and test compounds are dissolved in PEG400 (0.3 mg/mL), […] The administrated mouses are observed for 8 hours.

Data set [6] can be described thus: Liver microsomal stability test, mouse. In kind it is in vitro ADME. The settings on record: Mouse liver microsomes. How it is done: as §1
Setting [7] is: SD, rat, plasma, po, 10 mg/kg, read-out: AUC.
Setting [8] is: SD, rat, plasma, po, 10 mg/kg, read-out: Cmax.
Where [9] appears, read: SD, rat, plasma, po, 10 mg/kg, read-out: Tmax.
[10] abbreviates: 0.5 mg/mL protein, 37° C., NADPH.

Consider `Cc1cc(-c2ccccc2F)c(C(=O)C(=O)Nc2ccc3c(c2)OC[C@H]2CN(c4ncc(F)cn4)CCN32)n1C` [Example 35, (R)-2-(3-(2-fluorophenyl)-1,5-dimethyl-1H-pyrrol-2-yl)-N-(3-(5-fluoropyrimidin-2-yl)-1,2,3,4,4a, 5-hexahydrobenzo [b]pyrazino[1,2-d] [1,4]oxazin-8-yl)-2-oxoacetamide], for which the MIC in data set [1] was determined as 0.008 µg/mL (≈ 0.0147 µM); in data set [3] (ATCC204305) it was 0.016 µg/mL (≈ 0.0294 µM). Besides, the AUC in data set [2] (setting [7]) was determined as 12800 ng·h/mL. For the same molecule, the Cmax in data set [2] (setting [8]) amounted to 1520 ng/mL. The Tmax in data set [2] (setting [9]) worked out at 50 min. Also, in data set [2] (SD, rat, plasma, po, 10 mg/kg), the half-life was 297 min.
For the molecule `Cc1cc(-c2ccccc2F)c(C(=O)C(=O)Nc2ccc3c(c2)C[C@H]2CN(c4ncc(F)cn4)CCN32)n1C` [Example 38, (S)-2-(3-(2-fluorophenyl)-1,5-dimethyl-1H-pyrrol-2-yl)-N-(2-(5-fluoropyrimidin-2-yl)-1,2,3,4,10,10a-hexahydropyrazino[1,2-a]indol-8-yl)-2-oxyacetamide], in data set [4] (setting [10]), the CLint came out at 40.7 mL/min/kg and the T1/2 came to 30.7 min. Besides, the “Remaining, (T = 60 min)” value in data set [4] is listed as 25.3%. Besides, in data set [2], the AUC was determined as 41566.714 ng·h/mL, the Cmax was found to be 3053.085 ng/mL, the Tmax worked out at 60 min and the T½ came out at 672.12 min. The “ATCC 204305: MIC” value in data set [3] amounted to 0.008 µg/mL. The “day 7 survival rate” value in data set [5] (3 mg/kg (bid) orally for 6 days, started 24 hours after infection) came out at 50%. Besides, the “survival time of mouses” value in data set [5] (oral, bid) is recorded as “prolong the survival time”. In addition, in data set [6] (setting [10]), the CLint is 85.1 mL/min/kg and the T1/2 amounted to 29.3 min. In addition, the “Remaining, (T = 60 min)” value in data set [6] turned out to be 24.5%.
For the molecule `Cc1cc(-c2ccccc2F)c(C(=O)C(=O)Nc2ccc3c(c2)COCC2CN(c4ncc(F)cn4)CCN32)n1C` (centres unmarked) [Example 39, 2-(3-(2-fluorophenyl)-1,5-dimethyl-1H-pyrrol-2-yl)-N-(3-(5-fluoropyrimidin-2-yl)-1,2,3,4,4a,5-hexahydro-7H-benzo[e]pyrazine[2,1-c] [1,4]oxazolin-9-yl)-2-oxoacetamide], the “ATCC 204305: MIC” value in data set [3] amounted to 0.03 µg/mL.
`Cc1cc(-c2ccccc2F)c(C(=O)C(=O)Nc2cnc3c(c2)OCC2CN(c4ncc(F)cn4)CCN32)n1C` (centres unmarked) [Example 40]: the “ATCC 204305: MIC” value in data set [3] came to 0.06 µg/mL.
On to `Cc1cc(-c2ccccc2)c(C(=O)C(=O)Nc2ccc3c(c2)CC2CN(c4ncc(F)cn4)CCN32)n1C` (centres unmarked) [Example 1, 2-(1,5-dimethyl-3-phenyl-1H-pyrrol-2-yl)-N-(2-(5-fluoropyrimidin-2-yl)-1,2,3,4,10,10a-hexahydropyrazino[1,2-a]indol-8-yl)-2-oxoacetamide], for which the MIC in data set [1] was found to be 0.03 µg/mL (≈ 0.0588 µM). The results for the CLint scaled in data set [4] (setting [10]) and in data set [6] (setting [10]) were 32.6 mL/min/kg and 65.2 mL/min/kg, respectively. Further, the half-life in data set [4] (setting [10]) was 38.3 min; in data set [2] (SD, rat, plasma, po, 10 mg/kg) it was 389 min; in data set [6] (setting [10]) it was 38.3 min. The “Remaining, (T = 60 min)” value in data set [4] is 35.7%; in data set [6], 34.4%. Also, the AUC in data set [2] (setting [7]) stood at 48300 ng·h/mL. Moreover, the Cmax in data set [2] (setting [8]) came to 3860 ng/mL. The Tmax in data set [2] (setting [9]) was found to be 140 min.

Source of the values: patent publication US20240327423A1, “A SERIES OF PYRROLE DERIVATIVES AND THEIR PREPARATION METHOD AND THERAPEUTIC USE” (SHENZHEN SUNGENING BIO-MEDICAL CO., LTD, priority 2020, published 2024).
